Measurements: patent US9271493B2, “Methods for microbial biofilm destruction” (priority 2012, dated 2016)
Where two headings read alike, the source gives them in different places.

Tests used:
UTI89 [1] = assay: pellicle formation (biofilm at the air-liquid interface); type: cell-based, uropathogenic E. coli; settings: for pellicle formation / biofilm formation at the air-liquid interface: UTI89; for concentration preventing formation of a biofilm at the air-liquid interface: UTI89, complete inhibition
Description: (§1) Biofilm assays. Colony biofilm formation was initiated by spotting 10 μl of overnight bacterial culture onto a YESCA agar plate (Kolodkin-Gal et al. (2010) Science 328:627-629). Colony morphology was observed after designated growth times at 26° C. Biofilm in YESCA broth attached to plastic (polyvinyl chloride, PVC) was determined using the Kolter crystal violet assay as described by O'Toole et al. (1998) Mol. Microbiol. 28:449-461. Briefly, bacterial cells were grown in 96-well PVC plates; unattached cells were washed away; and cells remaining associated with the PVC wells were stained with 0.1% crystal violet. The extent of biofilm formation was quantified by measuring the absorbance of crystal violet at OD595 after dissolving the PVC-associated biomass in 95% ethanol. The percent biofilm represents the increase in biofilm formation in the presence of various concentrations of DMSO and ethanol relative to biofilm formation when no compound was present. The mean of triplicate individual experiments was used and error bars represent the standard deviation. Pellicle formation was initiated by inoculating 4 μL of an overnight bacterial culture grown in YESCA broth in 4 mL YESCA in 12-well-plate wells and incubated at 26° C. Pellicle formation was inspected visually and assessed by perturbation with a pipet tip after 72 hours of growth.

UTI89 [2] = assay: colony biofilm formation on YESCA agar; type: cell-based, uropathogenic E. coli; settings: for biofilm formation on agar (colony morphology): UTI89 on YESCA agar
Description: (§2) Growth conditions. UTI89, UTI89ΔcsgA, MC4100, and MC4100Δcsg were grown on YESCA (0.5 g/L yeast extract; 10 g/L Casamino acids) agar supplemented with additional compounds as indicated.
as §1

UTI89 [3] = assay: biofilm attached to PVC plastic, 96-well crystal violet assay; type: cell-based, uropathogenic E. coli
Description: as §1

[4] = system: curli proteins, CsgA and CsgG; assay: Western blot analysis of cell-associated curli proteins; type: cell-based, E. coli
Description: Western blot analysis. The cell-associated curli proteins, CsgA and CsgG, were examined by immunoblot assays as described (41). Briefly, whole-cell samples with equivalent cell number were prepared as cell pellets of 1 mL cell culture with an OD600 of 1.0. Each pellet was treated with 100 μL hexafluoroisopropanol (HFIP) to dissociate curli subunits (41). HFIP was removed by vacuum centrifugation, and samples were resuspended in SDS-PAGE loading buffer. Protein gel electrophoresis was carried out using 12% SDS-PAGE gels (Invitrogen) and blotted onto […] nitrocellulose transfer membranes (Whatman). The polyclonal rabbit antiserum to CsgA or CsgG was used as the primary antibody and horseradish peroxidase (HRP) conjugated goat anti-rabbit antibody (Pierce) was used as the secondary antibody (55).

curli [5] = target: T1, curli (Escherichia coli, UniProt P28307); settings: McCrate, Zhou, and Cegelski 2013; cited from earlier work
T1 sequence (P28307 21-151): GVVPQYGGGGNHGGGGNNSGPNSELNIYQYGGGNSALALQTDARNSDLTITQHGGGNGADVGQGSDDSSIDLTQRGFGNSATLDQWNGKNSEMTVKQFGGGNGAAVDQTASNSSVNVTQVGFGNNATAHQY

E. coli strain MC4100 = assay: fibronectin-binding assay (adhesion to fibronectin-coated plates); type: cell-based; settings: MC4100 grown under curli-producing conditions on agar in the presence of compound; dose-dependent
Excerpt: We employed a commonly used fibronectin-binding assay to determine whether curcumin blocks adhesion of E. coli strain MC4100 to fibronectin-coated plates. MC4100 is the E. coli strain in which curli biogenesis was first described. […] UTI89, on the other hand, is a prototypical biofilm-competent strain that forms biofilms on agar, on plastic, and at an air-liquid interface when expressing curli and cellulose. Since curli are sufficient to mediate binding to fibronectin, the use of MC4100 readily allows one to determine whether a compound or external stimulus can influence curli-dependent adhesion.
as §2

amyloid β = amyloid β (Homo sapiens, UniProt P05067); settings: oligomer form and fibril form; Yang et al. 2005; cited from earlier work
Chain of amyloid β (P05067 672-713 limits assumed): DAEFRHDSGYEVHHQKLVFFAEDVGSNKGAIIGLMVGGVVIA

E. coli = assay: biofilm formation attached to Teflon (1 mL Teflon beakers, crystal violet); type: cell-based; settings: 48 hours at 26° C. in YESCA broth
Description: FIG. 4. Curcumin and dim ethyl curcumin reduce E. coli biofilm formation attached to Teflon using 1 mL Teflon beakers. After bacterial incubation for 48 hours at 26° C. in YESCA nutrient broth in the presence or absence of compounds, planktonic and loosely associated bacteria were washed from the beakers and adherent bacteria were stained with crystal violet, dissolved in ethanol and quantified by spectrophotometry.
Teflon is often used as a material in various industrial and biomedical applications, including the production of catheters. Teflon is often employed due to its general anti-adherent properties. Yet, even E. coli can adhere to Teflon and forms biofilms on Teflon surfaces. Thus, we also examined the ability of curcumin and DMC to prevent biofilm formation attached to Teflon using small 1-mL Teflon beakers.

[6] = target: Alzheimer's β-amyloid fibrils (Homo sapiens, UniProt P05067); settings: Ono et al. 2004; cited from earlier work
Chain of Alzheimer's β-amyloid fibrils (P05067 672-713 limits assumed): as above

curli [7] = target: T1, curli; settings: cited from earlier work

With `Nc1c(/N=N/c2ccc(-c3ccc(/N=N/c4cc(S(=O)(=O)O)c5ccccc5c4N)cc3)cc2)cc(S(=O)(=O)O)c2ccccc12` [Congo red] the “pellicle formation / biofilm formation at the air-liquid interface” value (UTI89 [1]) was “not” and the “biofilm formation on agar (colony morphology)” value (UTI89 [2]) was “does not block biofilm formation”.

In the case of `COc1ccc(/C=C/C(=O)CC(=O)/C=C/c2ccc(OC)c(OC)c2)cc1OC` [DMC, dimethoxycurcumin], the “concentration blocking biofilm formation attached to plastic (PVC)” value (UTI89 [3]) was 10 µM and the “concentration preventing formation of a biofilm at the air-liquid interface” value (UTI89 [1]) was 10 µM.

With `COc1cc(/C=C/C(=O)CC(=O)/C=C/c2ccc(O)c(OC)c2)ccc1O` [curcumin] the “concentration blocking biofilm formation attached to plastic (PVC)” value (UTI89 [3]) was 25 µM, the “concentration blocking biofilm formation attached to plastic (PVC)” value (UTI89 [3]; listed as curumin) was 10 µM and the “production of curli proteins” value ([4]; MC4100, Western blot) was “did not influence”. For the same compound, the curli production ([4]; UTI89, Western blot) was “not affected”, the “pellicle formation / biofilm formation at the air-liquid interface” value (UTI89 [1]) was “completely prevent pellicle formation” and the “concentration preventing formation of a biofilm at the air-liquid interface” value (UTI89 [1]) was 25 µM. The binding to curli (curli [5]) was “binding to curli”, the “adhesion to the protein fibronectin” value (E. coli strain MC4100) was “reduced adhesion” and the “binding to amyloid β” value (amyloid β) was “bind”. The “biofilm formation attached to Teflon” value (E. coli) was “effective at significantly preventing biofilm formation”, the “biofilm inhibition on agar after 5 days” value (UTI89 [2]; UTI89, 5 days of bacterial growth) was “diminished after 5 days” and the “biofilm formation on agar (colony morphology)” value (UTI89 [2]) was “lost the hallmark rough and wrinkled phenotype”. The “amyloid fibril formation in vitro” value [6] was “prevent amyloid fibril formation”.

For LL-37, the curli formation (curli [7]) is given as “inhibits curli formation”.
